Test results: patent publication US20240116922A1, “IMIDAZO[1,2-A]PYRIDINE DERIVATIVES AS IRAK4 INHIBITORS AND THEIR USE IN THE TREATMENT OF DISEASE” (BIOGEN MA INC., priority 2020, published 2024)
In brackets after ≈: the same amount, converted by molar mass.

Legend:
MDR1 = MDR1 (Homo sapiens (Human), UniProt P08183); test: in vitro; settings: MDCK-MDR1
IRAK4 = IRAK4 (Homo sapiens (Human), UniProt Q9NWZ3); test: IRAK4 MSD biochemical assay (2-hour 1 mM ATP); settings: 0.1 nM IRAK4, 1 mM ATP, 2 hour at room temperature
Chain of IRAK4 (Q9NWZ3 whole entry): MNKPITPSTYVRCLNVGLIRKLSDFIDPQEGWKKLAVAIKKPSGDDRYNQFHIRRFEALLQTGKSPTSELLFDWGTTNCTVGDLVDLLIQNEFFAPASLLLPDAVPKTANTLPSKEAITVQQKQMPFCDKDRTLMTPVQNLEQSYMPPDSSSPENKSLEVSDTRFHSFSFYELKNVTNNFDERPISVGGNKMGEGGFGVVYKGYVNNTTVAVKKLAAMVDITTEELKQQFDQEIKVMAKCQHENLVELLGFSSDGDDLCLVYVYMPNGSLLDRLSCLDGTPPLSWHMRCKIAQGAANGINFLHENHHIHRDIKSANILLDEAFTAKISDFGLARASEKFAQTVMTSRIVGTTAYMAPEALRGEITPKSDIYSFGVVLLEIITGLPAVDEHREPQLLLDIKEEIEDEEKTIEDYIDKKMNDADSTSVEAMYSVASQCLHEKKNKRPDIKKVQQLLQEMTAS

[1] = Kinetic solubility assay (CLND), pH 6.8; format: physicochemical; settings: aqueous buffer, kinetic from dmso stock; potassium phosphate buffer pH 6.8, 2% DMSO, 24 hours at ambient temperature

Chain of MDR1 (P08183 whole entry): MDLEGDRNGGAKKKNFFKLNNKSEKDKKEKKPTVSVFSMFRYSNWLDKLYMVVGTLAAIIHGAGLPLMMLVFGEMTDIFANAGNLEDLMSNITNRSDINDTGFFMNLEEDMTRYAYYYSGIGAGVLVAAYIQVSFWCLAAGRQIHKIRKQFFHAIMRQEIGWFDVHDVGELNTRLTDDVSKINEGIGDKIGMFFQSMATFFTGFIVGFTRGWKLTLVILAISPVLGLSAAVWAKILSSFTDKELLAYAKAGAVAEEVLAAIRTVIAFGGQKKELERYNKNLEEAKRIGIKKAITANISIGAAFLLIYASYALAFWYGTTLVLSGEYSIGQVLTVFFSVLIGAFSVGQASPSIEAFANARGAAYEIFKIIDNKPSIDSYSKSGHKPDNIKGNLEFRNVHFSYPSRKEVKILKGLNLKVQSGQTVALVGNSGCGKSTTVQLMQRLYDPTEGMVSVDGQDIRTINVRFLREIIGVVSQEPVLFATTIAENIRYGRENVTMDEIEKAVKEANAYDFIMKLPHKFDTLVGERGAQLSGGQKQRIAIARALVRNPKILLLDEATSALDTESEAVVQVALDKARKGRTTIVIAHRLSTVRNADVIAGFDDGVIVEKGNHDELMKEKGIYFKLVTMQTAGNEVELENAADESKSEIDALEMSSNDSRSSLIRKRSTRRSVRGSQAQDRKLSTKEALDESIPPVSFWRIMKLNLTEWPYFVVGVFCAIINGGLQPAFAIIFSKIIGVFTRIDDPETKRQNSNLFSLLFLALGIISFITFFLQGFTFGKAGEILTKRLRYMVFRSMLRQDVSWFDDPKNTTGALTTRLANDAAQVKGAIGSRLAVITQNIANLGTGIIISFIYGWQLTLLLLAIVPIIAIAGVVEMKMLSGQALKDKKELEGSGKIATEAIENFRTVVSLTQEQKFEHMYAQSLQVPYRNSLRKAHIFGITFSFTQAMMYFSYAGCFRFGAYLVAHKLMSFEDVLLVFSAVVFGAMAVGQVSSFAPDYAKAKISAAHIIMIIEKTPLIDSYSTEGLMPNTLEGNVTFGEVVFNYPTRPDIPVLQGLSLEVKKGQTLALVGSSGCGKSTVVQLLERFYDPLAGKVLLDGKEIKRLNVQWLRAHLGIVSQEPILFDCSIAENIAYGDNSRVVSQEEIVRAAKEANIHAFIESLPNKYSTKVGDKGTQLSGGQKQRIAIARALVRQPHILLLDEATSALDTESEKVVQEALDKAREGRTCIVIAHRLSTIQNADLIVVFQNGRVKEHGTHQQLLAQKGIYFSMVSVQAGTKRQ

| SMILES | efflux ratio at 120 min, 1 μM (MDR1) | IC50 (IRAK4) [nM] | solubility kinetic at 24 h [1] [µg/mL] |
| --- | --- | --- | --- |
| CC(C)Oc1cc2nc([C@]34CC[C@](C)(C3)OC4)cn2cc1C(=O)Nc1cccn([C@@H]2C[C@H]2F)c1=O (single isomer, unassigned) [Example 118] | 5.1 | 0.9 | 56.2 (≈ 117 µM) |
| CC(C)Oc1nc2nc([C@]34CC[C@](C)(C3)OC4)cn2cc1C(=O)Nc1cccn([C@H]2CC23CC3)c1=O (single isomer, unassigned) [Example 152] | 1.4 | 0.8 | 24.9 (≈ 50.9 µM) |
| CC(C)Oc1cc2nc([C@@]34CC[C@@](C)(C3)OC4)cn2cc1C(=O)Nc1cccn([C@@H]2C[C@H]2C)c1=O (single isomer, unassigned) [Example 191] | 1.5 | 0.4 | 48.5 (≈ 102 µM) |
| CC12CCC(c3cn4cc(C(=O)Nc5cccn(C6CC6)c5=O)c(OC5CCC5)cc4n3)(CC1)CO2 [Example 1, 7-cyclobutoxy-N-(1-cyclopropyl-2-oxo-1,2-dihydropyridin-3-yl)-2-(1-methyl-2-oxabicyclo[2.2.2]octan-4-yl)imidazo[1,2-a]pyridine-6-carboxamide] | 1.7 | 0.2 | 56 (≈ 115 µM) |
| CCC12CC(c3cn4cc(C(=O)Nc5cccn(C6CC6)c5=O)c(OC(C)C)cc4n3)(CO1)C2 [Example 2, N-(1-cyclopropyl-2-oxo-1,2-dihydropyridin-3-yl)-2-(1-ethyl-2-oxabicyclo[2.1.1]hexan-4-yl)-7-isopropoxyimidazo[1,2-a]pyridine-6-carboxamide] | 3.3 | 0.4 | 65.7 (≈ 142 µM) |
| CCC(C)Oc1cc2nc([C@@]34CC[C@@](C)(C3)OC4)cn2cc1C(=O)Nc1cccn(C2CC2)c1=O (stereo partly drawn) [Example 20, 7-(sec-butoxy)-N-(1-cyclopropyl-2-oxo-1,2-dihydropyridin-3-yl)-2-((1S,4R)-1-methyl-2-oxabicyclo[2.2.1]heptan-4-yl)imidazo[1,2-a]pyridine-6-carboxamide] | 2.8 | 0.7 | 68.1 (≈ 143 µM) |
| CC12CCC(c3cn4cc(C(=O)Nc5cccn(C6CC6)c5=O)c(OC5CCC5)cc4n3)(CO1)C2 (stereo not drawn) [Example 23, 7-cyclobutoxy-N-(1-cyclopropyl-2-oxo-1,2-dihydropyridin-3-yl)-2-(1-methyl-2-oxabicyclo[2.2.1]heptan-4-yl)imidazo[1,2-a]pyridine-6-carboxamide] | 2.8 | 0.5 | 61.9 (≈ 130 µM) |
| O=C(Nc1cccn(C2CC2)c1=O)c1cn2cc(C34COC(C3)C4)nc2cc1OC1CCC1 [Example 37, 2-(2-oxabicyclo[2.1.1]hexan-4-yl)-7-cyclobutoxy-N-(1-cyclopropyl-2-oxo-1,2-dihydropyridin-3-yl)imidazo[1,2-a]pyridine-6-carboxamide] | 10.2 | 3.1 | 64.4 (≈ 144 µM) |
| CC[C@@H](C)Oc1nc2nc([C@@]34CC[C@@](C)(C3)OC4)cn2cc1C(=O)Nc1cccn(C2CC2)c1=O [Example 48, 7-((R)-sec-butoxy)-N-(1-cyclopropyl-2-oxo-1,2-dihydropyridin-3-yl)-2-((1S,4R)-1-methyl-2-oxabicyclo[2.2.1]heptan-4-yl)imidazo[1,2-a]pyrimidine-6-carboxamide] | 3.2 | 0.8 | 63.2 (≈ 132 µM) |
| CC[C@H](C)Oc1nc2nc(C34CCC(CF)(C3)OC4)cn2cc1C(=O)Nc1cccn(C2CC2)c1=O (stereo partly drawn) [Example 56, 7-((S)-sec-butoxy)-N-(1-cyclopropyl-2-oxo-1,2-dihydropyridin-3-yl)-2-(1-(fluoromethyl)-2-oxabicyclo[2.2.1]heptan-4-yl)imidazo[1,2-a]pyrimidine-6-carboxamide] | 4.1 | 0.6 | 67.5 (≈ 136 µM) |
| COC12CC(c3cn4cc(C(=O)Nc5cccn(C6CC6)c5=O)c(OC(C)C)cc4n3)(C1)C2 [Example 62, N-(1-cyclopropyl-2-oxo-1,2-dihydropyridin-3-yl)-7-isopropoxy-2-(3-methoxybicyclo[1.1.1]pentan-1-yl)imidazo[1,2-a]pyridine-6-carboxamide] | 3.6 | 0.4 | 58.2 (≈ 130 µM) |
| CC12CC(c3cn4cc(C(=O)Nc5ccnn(C6CC6)c5=O)c(OC5CCC5)nc4n3)(CO1)C2 [Example 72, 7-cyclobutoxy-N-(2-cyclopropyl-3-oxo-2,3-dihydropyridazin-4-yl)-2-(1-methyl-2-oxabicyclo[2.1.1]hexan-4-yl)imidazo[1,2-a]pyrimidine-6-carboxamide] | 1.7 | 4.2 | 1.5 (≈ 3.24 µM) |
| CC(C)Oc1cc2nc([C@@]34CC[C@@](C)(C3)OC4)cn2cc1C(=O)Nc1ccnn(C2CC2)c1=O [Example 74, N-(2-cyclopropyl-3-oxo-2,3-dihydropyridazin-4-yl)-7-isopropoxy-2-((1S,4R)-1-methyl-2-oxabicyclo[2.2.1]heptan-4-yl)imidazo[1,2-a]pyridine-6-carboxamide] | 1 | 1.2 | 47.5 (≈ 102 µM) |

The remaining lines, values ahead:

| efflux ratio at 120 min, 1 μM (MDR1) | IC50 (IRAK4) [nM] | solubility kinetic at 24 h [1] [µg/mL] | SMILES |
| --- | --- | --- | --- |
| 3.4 | 0.7 | 32.6 (≈ 65.4 µM) | CC(C)Oc1c(C(=O)Nc2cccn([C@H]3C[C@H]3F)c2=O)cn2cc([C@]34CC[C@](C)(C3)OC4)nc2c1F (single isomer, unassigned) [Example 127] |
| 8.6 | 0.1 | 54.6 (≈ 114 µM) | CC[C@H](C)Oc1cc2nc(C34COC(C)(C3)C4)cn2cc1C(=O)Nc1cccn([C@H]2C[C@H]2F)c1=O (single isomer, unassigned) [Example 161] |
| 2.3 | 0.2 | 19.2 (≈ 41.2 µM) | O=C(Nc1cccn([C@H]2C[C@H]2F)c1=O)c1cn2cc(C34COC(C3)C4)nc2nc1OC1CCC1 (single isomer, unassigned) [Example 167] |
| 10.9 | 0.2 | 22.6 (≈ 47.2 µM) | CC12CC(c3cn4cc(C(=O)Nc5cccn([C@H]6C[C@H]6F)c5=O)c(OC5CCC5)cc4n3)(CO1)C2 (single isomer, unassigned) [Example 173] |
| 1.7 | 0.7 | 60.6 (≈ 127 µM) | CC(C)Oc1cc2nc([C@@]34CC[C@@](C)(C3)OC4)cn2cc1C(=O)Nc1cccn([C@H]2C[C@@H]2C)c1=O (single isomer, unassigned) [Example 192] |
| 18.2 | 0.2 | 62.6 (≈ 134 µM) | C[C@@H](CF)Oc1cc2nc(C34COC(C)(C3)C4)cn2cc1C(=O)Nc1cccn(C2CC2)c1=O [Example 28, (S)—N-(1-cyclopropyl-2-oxo-1,2-dihydropyridin-3-yl)-7-((1-fluoropropan-2-yl)oxy)-2-(1-methyl-2-oxabicyclo[2.1.1]hexan-4-yl)imidazo[1,2-a]pyridine-6-carboxamide] |
| 13.6 | 0.6 | 60.2 (≈ 129 µM) | C[C@H](CF)Oc1cc2nc(C34COC(C)(C3)C4)cn2cc1C(=O)Nc1cccn(C2CC2)c1=O [Example 29, (R)—N-(1-cyclopropyl-2-oxo-1,2-dihydropyridin-3-yl)-7-((1-fluoropropan-2-yl)oxy)-2-(1-methyl-2-oxabicyclo[2.1.1]hexan-4-yl)imidazo[1,2-a]pyridine-6-carboxamide] |
| 11.1 | 1 | 39.2 (≈ 90.2 µM) | CC(C)Oc1cc2nc(C34COC(C3)C4)cn2cc1C(=O)Nc1cccn(C2CC2)c1=O [Example 34, 2-(2-oxabicyclo[2.1.1]hexan-4-yl)-N-(1-cyclopropyl-2-oxo-1,2-dihydropyridin-3-yl)-7-isopropoxyimidazo[1,2-a]pyridine-6-carboxamide] |
| 1.4 | 1.6 | 40.4 (≈ 87.2 µM) | CC(C)Oc1cc2nc([C@]34CC[C@](C)(C3)OC4)cn2cc1C(=O)Nc1ccnn(C2CC2)c1=O [Example 75, N-(2-cyclopropyl-3-oxo-2,3-dihydropyridazin-4-yl)-7-isopropoxy-2-((1R,4S)-1-methyl-2-oxabicyclo[2.2.1]heptan-4-yl)imidazo[1,2-a]pyridine-6-carboxamide] |
| 2.1 | 0.7 | 89.7 (≈ 188 µM) | CC(C)Oc1cc2nc([C@@]34CC[C@@](C)(C3)OC4)cn2cc1C(=O)Nc1cccn(C2C[C@H]2C)c1=O (stereo partly drawn) [Example 98, trans-7-isopropoxy-2-((1S,4R)-1-methyl-2-oxabicyclo[2.2.1]heptan-4-yl)-N-(1-(2-methylcyclopropyl)-2-oxo-1,2-dihydropyridin-3-yl)imidazo[1,2-a]pyridine-6-carboxamide] |
| 10.8 | 0.3 | 69.3 (≈ 143 µM) | CC(Oc1cc2nc(C34COC(C)(C3)C4)cn2cc1C(=O)Nc1cccn(C2CC2)c1=O)C(F)F [Example 102, (S)—N-(1-cyclopropyl-2-oxo-1,2-dihydropyridin-3-yl)-7-((1,1-difluoropropan-2-yl)oxy)-2-(1-methyl-2-oxabicyclo[2.1.1]hexan-4-yl)imidazo[1,2-a]pyridine-6-carboxamide] |
| 4.3 | 1.7 | 74.5 (≈ 167 µM) | CC12CC(c3cn4cc(C(=O)Nc5cccn(C6CC6)c5=O)c(OC5CC5)cc4n3)(CO1)C2 [Example 104, 7-cyclopropoxy-N-(1-cyclopropyl-2-oxo-1,2-dihydropyridin-3-yl)-2-(1-methyl-2-oxabicyclo[2.1.1]hexan-4-yl)imidazo[1,2-a]pyridine-6-carboxamide] |
| 5.3 | 0.6 | 55.6 (≈ 116 µM) | CC(C)Oc1cc2nc([C@@]34CC[C@@](C)(C3)OC4)cn2cc1C(=O)Nc1cccn([C@@H]2C[C@H]2F)c1=O [Example 116, N-(1-((1R,2R)-2-fluorocyclopropyl)-2-oxo-1,2-dihydropyridin-3-yl)-7-isopropoxy-2-((1S,4R)-1-methyl-2-oxabicyclo[2.2.1]heptan-4-yl)imidazo[1,2-a]pyridine-6-carboxamide] |
